Data: PMC12707263 (ACS Pharmacology & Translational Science, 2025)
Entries after “also recorded” stand apart in the source; their conditions may differ.

What was measured:
[1] = tested on: OCI-Ly10 cells; assay: Pairwise 10 × 10 matrix combination with venetoclax, Cell Titer Glo viability; conditions: for synergistic cell killing when combined with venetoclax: ΔBlissSum
[2] = tested on: 24 kinase targets associated with B-cell malignancy signaling cascades; assay: HotSpot profile across the panel; type: biochemical
[3] = reported values; ref not given; cited from earlier work
[4] = tested on: REC-1 cells; assay: Pairwise 10 × 10 matrix combination with venetoclax, Cell Titer Glo viability; conditions: venetoclax 10000 nM to 39 nM
[5] = tested on: HBL1 cells; assay: as above; conditions: venetoclax 1000 nM to 3.9 nM

SMILES | synergistic cell killing when combined with venetoclax [1] | off-target profile across the 24 kinase panel [2] | fraction unbound (FU) [3] [% FU] | further results
CC#CC(=O)N1CCC[C@H]1c1nc(-c2ccc(C(=O)Nc3ccccn3)cc2)c2c(N)nccn12 [Acalabrutinib] | more focal in nature | most selective; also recorded: remarkably free of any additional off target activity | 2.5 | –
CC#CC(=O)N[C@H]1CCCN(c2c(F)cc(C(N)=O)c3[nH]c(C)c(C)c23)C1 [Branebrutinib] | – | remarkably free of any additional off target activity | 1.2 | –
C=CC(=O)N1CCC(CNc2ncnc(N)c2-c2ccc(Oc3ccccc3)cc2)CC1 [Evobrutinib] | – | remarkably free of any additional off target activity | – | –
C[C@H]1CN(C2COC2)CCN1c1ccc(Nc2cc(-c3ccnc(N4CCn5c(cc6c5CC(C)(C)C6)C4=O)c3CO)cn(C)c2=O)nc1 [Fenebrutinib] | – | most selective; also recorded: remarkably free of any additional off target activity | – | –
C=CC(=O)N1CCC[C@@H](n2nc(-c3ccc(Oc4ccccc4)cc3)c3c(N)ncnc32)C1 [Ibrutinib] | – | most promiscuous beyond BMX and BLK | – | –
C=CC(=O)Nc1cccc(Oc2nc(Nc3ccc(N4CCN(C)CC4)cc3)nc3ccoc23)c1 [Poseltinib] | more focal in nature | most promiscuous beyond BMX and BLK | – | –
C=CC(=O)N(C)CCOc1c(N)ncnc1-c1cc(F)cc(NC(=O)c2ccc(C3CC3)cc2F)c1C [Remibrutinib] | similar, broad synergistic cell killing across multiple concentration ranges | most selective; also recorded: remarkably free of any additional off target activity | – | –
CC(C)(/C=C(\C#N)C(=O)N1CCC[C@@H](n2nc(-c3ccc(Oc4ccccc4)cc3F)c3c(N)ncnc32)C1)N1CCN(C2COC2)CC1 [Rilzabrutinib] | similar, broad synergistic cell killing across multiple concentration ranges | remarkably free of any additional off target activity | – | –
CC#CC(=O)N1CC[C@@H](n2c(=O)n(-c3ccc(Oc4ccccc4)cc3)c3c(N)ncnc32)C1 [Tirabrutinib] | – | most selective; also recorded: remarkably free of any additional off target activity | 8.3 | –
CC1(C)CCC(CN2CCN(c3ccc(C(=O)NS(=O)(=O)c4ccc(NCC5CCOCC5)c([N+](=O)[O-])c4)c(Oc4cnc5[nH]ccc5c4)c3)CC2)=C(c2ccc(Cl)cc2)C1 [Venetoclax] | – | – | – | single agent activity (cytotoxicity) [4]: no single agent activity; single agent activity (cytotoxicity) ([1]; venetoclax 1000 nM to 3.9 nM): no single agent activity; single agent activity (cytotoxicity) [5]: no single agent activity
C=CC(=O)N1CCC([C@@H]2CCNc3c(C(N)=O)c(-c4ccc(Oc5ccccc5)cc4)nn32)CC1 [Zanubrutinib] | similar, broad synergistic cell killing across multiple concentration ranges | most promiscuous beyond BMX and BLK | 6 | –
